{
  "source": "patent US20180125795A1",
  "about": "“[…] COMPOSITIONS AND METHODS” (ThermoLife International, LLC, priority 2017, published 2018)",
  "tested_on": "human subject",
  "test": "Post-exercise recovery (whole-body oxygen consumption)",
  "assay_type": "in vivo",
  "procedure": "The administration of cinnamaldehyde promotes post-exercise recovery by reducing the time for a subject's oxygen consumption level (VO2) to return to his or her pre-exercise level when cinnamaldehyde is administered after exercise. In these implementations, cinnamaldehyde is administered with a protein and/or a carbohydrate. The protein may be any protein commonly used in nutritional supplement manufacture, which includes but is not limited to whey protein, milk protein, casein protein, beef protein, soy protein, hemp protein, rice protein, canola protein, spirulina, and pea protein. The carbohydrate may by any commonly used form of simple or complex carbohydrates used in the manufacture of dietary supplements, which includes but is not limited glucose, fructose, dextrose, palatinose, maltodextrin, various starches, activated barley, waxy maize, cereals, and oats. In a preferred embodiment, cinnamaldehyde is administered to the human subject within two hours of completion of exercise, for example within 90 minutes, 60 minutes, or 30 minutes of completion of exercise.\nThe effect of cinnamaldehyde on promoting post-exercise exercise is best when cinnamaldehyde is administered within an hour after exercise and its effect is reduced when administered two hours after exercise. The effect of cinnamaldehyde on promoting post-exercise exercise is enhanced when it is administered with a protein and/or a carbohydrate (for example, a combination of whey powder and glucose).",
  "data": [
    {"compound": "O=CC=Cc1ccccc1", "note": "[cinnamaldehyde]", "values": [
      {"measurement": "time for whole-body oxygen consumption to return to pre-exercise levels", "setting": "administered after the human subject completed an exercise session", "result": "reduced the time"},
      {"measurement": "effect on promoting post-exercise recovery", "setting": "administered two hours after exercise", "result": "reduced"},
      {"measurement": "effect on promoting post-exercise recovery", "setting": "administered with a protein and/or a carbohydrate (e.g. whey powder and glucose)", "result": "enhanced"},
      {"measurement": "effect on promoting post-exercise recovery", "setting": "administered within an hour after exercise", "result": "best"}
    ]}
  ]
}
